Measurements published in patent publication US7332503B2, “Aporphine esters and their use in therapy” (Axon Biochemicals B.V., priority 2000, dated 2008).
Where a name gives a salt, the structure may show the parent alone.

How the values were obtained:
[1] = literature, animal models; cited from earlier work
rat [2] = assay: Transdermal experiment in one single rat (shaved neck); assay type: in vivo
Method: The test animals used were male albino Wistar rats weighing between 200 and 370 g. Food and water were available to the rats all the time. They were set in a normal 12 hour day night rhythm. Before the operation the animals resided in a larger cage with a group of rats. During the experiments they were alone in a cage with the dimensions 25*25*35 cm. The blood sampling was performed in freely moving animals, which were all conscious. In this way potential behavioral changes from the treatment could be registered. The operation consisted of the application of a cannula in the vena jugularis. After an experiment the rats were given at least 24 hours to recover.
This amount of cream was applied with a spatula on the shaved neck of the rat, weighing about 350 g.
After one hour and 10 minutes, about five droplets of DMSO were smeared on to the rat neck.
In a comparative experiment 7 mg of Apomorphine hydrochloride solid was dissolved in DMSO (70 microliters).

rat [3] = assay: Dopaminergic activity in rats after s.c. injection in Viscoleo; assay type: in vivo; conditions: two rats, ca 3.7 mg/kg (corr. to 2 mg/kg ApoxHCl), 3.7 mg/mL in Viscoleo
Method: The maximum volume of an oil solution/suspension to be injected intramuscularly or subcutaneously is 2-4 mL. This is feasible for the preparations of the aporphine derivatives of the present invention. The accumulated daily dose used in apomorphine s.c. therapy in Parkinson's disease is 4-10 times about 1-4 mg (4-40 mg/day). For the animal experiments performed in the pharmacological research, which led to the present invention, ca 2 mg Apomorphine×HCl (or equivalent molar amount of compounds according to Formula I above, as the base or as a suitable salt or ion-pair) was dissolved in 1 mL of an oil (sesame oil, Viscoleo or another approved oil) and the mixture was gently heated (max 50° C.) shaken in a test tube shaker and ultrasonicated for a short time (minutes) until the mixture became a homogeneous solution or suspension. If necessary, the test compound was first dissolved in 50-300 μL DMSO, water, t-BuOH, PEG, benzylbenzoate, or another suitable and approved solvent or mixtures thereof, before adding the oil (see above) to a total volume of 1 mL.
First 2 eq. were added and after a night at room temperature the solvent was evaporated and the residue was redissolved in CH2Cl2 and a sample was taken with a pipette and chromatographed on a pipette filled with Al2O3. Elution was performed with first CH2Cl2 and then with CH2Cl2:EtOH (9:1). […]

[4] = background statement; cited from earlier work
[5] = comparative: 2 mg in 20 microliters DMSO on shaved neck
[6] = about 5 mg in Fenuril cream plus DMSO

## CC(=O)Oc1ccc2c(c1OC(C)=O)-c1cccc3c1C(C2)N(C)CC3 (centres unmarked) [10,11-Di-acetyl-apomorphine]
[1]
  activity relative to parent compound apomorphine: almost as potent as apomorphine itself

## CN1CCc2cccc3c2[C@H]1Cc1ccc(O)c(O)c1-3 [Apomorphine hydrochloride]
Rat [2]; [5]
  dopaminergic activity after end of stereotypy: No other signs of dopaminergic activity
  duration of intense stereotypy: about two
  time to stereotypy: about 30 minutes

## CCCCCCCCCCCCCCCC(=O)Oc1ccc2c(c1OC(=O)CCCCCCCCCCCCCCC)-c1cccc3c1C(C2)N(C)CC3 (centres unmarked) [di-C16-Apo]
Rat [3]
  effect (dopaminergic activity): No effect whatsoever

## CN1CCc2cccc3c2C1Cc1ccc(OC(=O)C(C)(C)C)c(OC(=O)C(C)(C)C)c1-3 (centres unmarked) [dipivaloyl ester pro-drug]
[1]
  activity relative to parent compound apomorphine: much less active than the parent compound

## N[C@@H](Cc1ccc(O)c(O)c1)C(=O)O [levodopa]
[4]
  fraction of drug converted to DA in peripheral tissues: about 95%
  fraction of drug that enters the brain: less than 1%

## Mono-Butyryl Apomorphine [Example 2]
Rat [2]; [6]
  behaviour the next day at 10:00 a.m.: still active showing signs of chewing
  time at which chewing, sniffing and yawning were still observed: ~6 h
Rat [2]; about 5 mg in Fenuril cream, after DMSO
  duration of stereotypy: at least two
Rat [2]; about 5 mg in Fenuril cream, time after DMSO
  time to typical dopaminergic syndrome including locomotor activity: About 30 minutes
Rat [2]; about 5 mg in Fenuril cream, time after about five droplets of DMSO smeared on neck
  time to intense yawning, sniffing, penile licking and chewing: about 10 minutes
Rat [2]; about 5 mg in about 120 mg Fenuril hand cream on shaved neck, first hour, before DMSO
  dopaminergic effects: Dopaminergic effects were seen but they were weak
